Data set [1] in a line: Dissociation constant, pKa of the compound by UV-visible absorption spectroscopy. The format is physicochemical.
A short description of data set [2]: Antioxidant activity assessed as second order rate constant for galvinoxyl radical scavenging activity in acetonitrile solution by UV-visible absorption spectroscopy. The format is functional.
Data set [3] in a line: Hydroxyl radical scavenging activity assessed as reduction of DMPO-OH adduct formation using Fenton reaction by ESR spectroscopy. The format is functional.

Structures are written as SMILES.

For `CC1(C)CCc2c(Cl)c(O)c(Cl)c(Cl)c2O1`, the pKa in data set [1] was found to be 7.1. For the same molecule, the figures for the Activity in data set [2] and in data set [3] were 54 M⁻¹ s⁻¹ and “Dose-dependent effect”, respectively.

Take `CC1(C)CCc2cc(O)ccc2O1`: in data set [1], the pKa was determined as 10.3. Further, the Activity is 98 M⁻¹ s⁻¹ in data set [2] and “Dose-dependent effect” in data set [3].

In data set [1], `CC1(C)CCc2cc(O)c(Cl)cc2O1` returned a pKa of 9.1. Also, the results for the Activity in data set [2] and in data set [3] were 42 M⁻¹ s⁻¹ and “Dose-dependent effect”, respectively.

As to `CC1(C)CCc2c(cc(Cl)c(O)c2Cl)O1`, in data set [1], the pKa was 7.7. Moreover, the Activity in data set [2] was 67 M⁻¹ s⁻¹; in data set [3], “Dose-dependent effect”.

Turning to `CC1(C)CCc2cc(O)cc(Cl)c2O1`, the pKa in data set [1] was determined as 9.8. The Activity in data set [2] was 21 M⁻¹ s⁻¹; in data set [3], “Dose-dependent effect”.

As to `CC1(C)CCc2c(ccc(O)c2Cl)O1`, the pKa in data set [1] was 8.6. Besides, the Activity in data set [2] was 37 M⁻¹ s⁻¹; in data set [3], “Dose-dependent effect”.

Broadly, the pKa is the negative logarithm of the acid dissociation constant. Read a low pKa as a group that gives up its proton readily.

These data come from ChEMBL document CHEMBL2046314, “Chlorine atom substitution influences radical scavenging activity of 6-chromanol” (Bioorg Med Chem, 2012).
